Data taken from patent publication US5837868A, “Process for preparation of chiral 3-amino-pyrrolidine and analogous bicyclic compounds” (Abbott Laboratories, priority 1997, dated 1998).

Legend:
E. coli SS = test: In vitro antibacterial activity, agar dilution MIC; type: cell-based; settings: E. coli SS; BHI agar dilution, 20-24 hours
Protocol: (§1) Each plate was inoculated with 1:100 (or 1:10 for slow-growing strains, primarily Micrococcus and Streptococcus) dilutions of up to 32 different microorganisms, using a Steers replicator block calibrated to deliver approximately 10^4 colony forming units (CFUs). The inoculated plates were incubated at from about 35° C. to about 37° C. for approximately 20-24 hours. In addition, a control plate using BHI agar containing no test compound was prepared and incubated at the beginning and at the end of each test. The quinolone antibacterial ciprofloxacin was used as a control ("Cntl").
(§2) The MIC was defined as the lowest concentration of test compound yielding no growth (a slight haze or sparsely isolated colonies at the inoculum spot) as compared to the growth control containing no test compound.

Pseudomonas cepacia 296I = test: In vitro antibacterial activity, agar dilution MIC; type: cell-based; settings: Pseudomonas cepacia 296I; BHI agar dilution, 20-24 hours
Protocol: as §1, §2

[1] = tested on: Providencia stuartii CMX 640; test: In vitro antibacterial activity, agar dilution MIC; type: cell-based; settings: Providencia stuartii CMX 640; BHI agar dilution, 20-24 hours
Protocol: as §1, §2

E. coli DC-2 = test: In vitro antibacterial activity, agar dilution MIC; type: cell-based; settings: E. coli DC-2; BHI agar dilution, 20-24 hours
Protocol: as §1, §2

M. luteus ATCC 4698 = test: In vitro antibacterial activity, agar dilution MIC; type: cell-based; settings: M. luteus ATCC 4698; BHI agar dilution, 20-24 hours
Protocol: as §1, §2

P. aeruginosa K799/WT = test: In vitro antibacterial activity, agar dilution MIC; type: cell-based; settings: P. aeruginosa K799/WT; BHI agar dilution, 20-24 hours
Protocol: as §1, §2

E. coli H560 = test: In vitro antibacterial activity, agar dilution MIC; type: cell-based; settings: E. coli H560; BHI agar dilution, 20-24 hours
Protocol: as §1, §2

M. luteus ATCC 9341 = test: In vitro antibacterial activity, agar dilution MIC; type: cell-based; settings: M. luteus ATCC 9341; BHI agar dilution, 20-24 hours
Protocol: as §1, §2

[2] = tested on: Strep. pyogenes 930 CONST; test: In vitro antibacterial activity, agar dilution MIC; type: cell-based; settings: Strep. pyogenes 930 CONST; BHI agar dilution, 20-24 hours
Protocol: as §1, §2

Strep. bovis A5169 = test: In vitro antibacterial activity, agar dilution MIC; type: cell-based; settings: Strep. bovis A5169; BHI agar dilution, 20-24 hours
Protocol: as §1, §2

[3] = tested on: Acinetob. calcoaceticus CMX 669; test: In vitro antibacterial activity, agar dilution MIC; type: cell-based; settings: Acinetob. calcoaceticus CMX 669; BHI agar dilution, 20-24 hours
Protocol: as §1, §2

Escherichia coli Juhl = test: In vitro antibacterial activity, agar dilution MIC; type: cell-based; settings: Escherichia coli Juhl; BHI agar dilution, 20-24 hours
Protocol: as §1, §2

[4] = tested on: Enter. aerogenes ATCC 13048; test: In vitro antibacterial activity, agar dilution MIC; type: cell-based; settings: Enter. aerogenes ATCC 13048; BHI agar dilution, 20-24 hours
Protocol: as §1, §2

Myco. smegmatis ATCC 114 = test: In vitro antibacterial activity, agar dilution MIC; type: cell-based; settings: Myco. smegmatis ATCC 114; BHI agar dilution, 20-24 hours
Protocol: as §1, §2

[5] = tested on: Strep. pyogenes 2548 INDUC; test: microbe, parasite or virus in culture; type: cell-based; settings: Strep. pyogenes 2548 INDUC; BHI agar dilution, 20-24 hours
Protocol: as §1, §2

[6] = tested on: Klebs. pneumoniae ATCC 8045; test: In vitro antibacterial activity, agar dilution MIC; type: cell-based; settings: Klebs. pneumoniae ATCC 8045; BHI agar dilution, 20-24 hours
Protocol: as §1, §2

E. coli KNK 437 = test: In vitro antibacterial activity, agar dilution MIC; type: cell-based; settings: E. coli KNK 437; BHI agar dilution, 20-24 hours
Protocol: as §1, §2

Staph. epidermidis 3519 = test: In vitro antibacterial activity, agar dilution MIC; type: cell-based; settings: Staph. epidermidis 3519; BHI agar dilution, 20-24 hours
Protocol: as §1, §2

P. aeruginosa A5007 = test: In vitro antibacterial activity, agar dilution MIC; type: cell-based; settings: P. aeruginosa A5007; BHI agar dilution, 20-24 hours
Protocol: as §1, §2

[7] = tested on: Nocardia asteroides ATCC 9970; test: In vitro antibacterial activity, agar dilution MIC; type: cell-based; settings: Nocardia asteroides ATCC 9970; BHI agar dilution, 20-24 hours
Protocol: as §1, §2

[8] = tested on: Strep. agalactiae CMX 508; test: In vitro antibacterial activity, agar dilution MIC; type: cell-based; settings: Strep. agalactiae CMX 508; BHI agar dilution, 20-24 hours
Protocol: as §1, §2

Staph. aureus 642A = test: In vitro antibacterial activity, agar dilution MIC; type: cell-based; settings: Staph. aureus 642A; BHI agar dilution, 20-24 hours
Protocol: as §1, §2

Staph. aureus CMX 553 = test: In vitro antibacterial activity, agar dilution MIC; type: cell-based; settings: Staph. aureus CMX 553; BHI agar dilution, 20-24 hours
Protocol: as §1, §2

Staph. aureus A5177 = test: In vitro antibacterial activity, agar dilution MIC; type: cell-based; settings: Staph. aureus A5177; BHI agar dilution, 20-24 hours
Protocol: as §1, §2

Staph. aureus 5278 = test: In vitro antibacterial activity, agar dilution MIC; type: cell-based; settings: Staph. aureus 5278; BHI agar dilution, 20-24 hours
Protocol: as §1, §2

[9] = tested on: Entero. faecium ATCC 8043; test: In vitro antibacterial activity, agar dilution MIC; type: cell-based; settings: Entero. faecium ATCC 8043; BHI agar dilution, 20-24 hours
Protocol: as §1, §2

Candida albicans CCH 442 = test: In vitro antibacterial activity, agar dilution MIC; settings: Candida albicans CCH 442; BHI agar dilution, 20-24 hours
Protocol: as §1, §2

P. aeruginosa 2862 = test: In vitro antibacterial activity, agar dilution MIC; type: cell-based; settings: P. aeruginosa 2862; BHI agar dilution, 20-24 hours
Protocol: as §1, §2

Strep. pyogenes EES61 = test: In vitro antibacterial activity, agar dilution MIC; type: cell-based; settings: Strep. pyogenes EES61; BHI agar dilution, 20-24 hours
Protocol: as §1, §2

P. aeruginosa K799/61 = test: In vitro antibacterial activity, agar dilution MIC; type: cell-based; settings: P. aeruginosa K799/61; BHI agar dilution, 20-24 hours
Protocol: as §1, §2

Staph. aureus ATCC 6538P = test: In vitro antibacterial activity, agar dilution MIC; type: cell-based; settings: Staph. aureus ATCC 6538P; BHI agar dilution, 20-24 hours
Protocol: as §1, §2

[10] = tested on: Staph. aureus 1775 Cipro. R.; test: In vitro antibacterial activity, agar dilution MIC; type: cell-based; settings: Staph. aureus 1775 Cipro. R.; BHI agar dilution, 20-24 hours
Protocol: as §1, §2

P. aeruginosa 5263 = settings: BHI agar dilution, 20-24 hours
Protocol: as §1, §2

P. aeruginosa BMH 10 = test: In vitro antibacterial activity, agar dilution MIC; type: cell-based; settings: P. aeruginosa BMH 10; BHI agar dilution, 20-24 hours
Protocol: as §1, §2

`CC[C@@H]1CN(c2c(F)cn3c(=O)c(C(=O)O)cc(C4CC4)c3c2C)C[C@H]1N.Cl` (single isomer, unassigned; diastereomer a) [Ex. 2, 8-(trans-3-amino-4-ethylpyrrolidin-1-yl)-1-cyclopropyl-7-fluoro-4H-9-methyl-4-oxo-quinolizine-3-carboxylic acid hydrochloride diastereomer A] was tested. Which MIC (E. coli SS) did it give?
The MIC was 0.001 µg/mL.

And the MIC (Pseudomonas cepacia 296I)?
Its MIC is 1.56 µg/mL.

And the MIC [1]?
The MIC was 0.39 µg/mL.

And the MIC (E. coli DC-2)?
Its MIC is 0.1 µg/mL.

And the MIC (M. luteus ATCC 4698)?
Its MIC is 0.05 µg/mL.

And the MIC (P. aeruginosa K799/WT)?
The MIC was 0.78 µg/mL.

What about the MIC (E. coli H560) of the same compound?
Its MIC is 0.01 µg/mL.

What about the MIC (M. luteus ATCC 9341) of the same compound?
The MIC was 0.05 µg/mL.

And the MIC [2]?
The MIC was 0.05 µg/mL.

And the MIC (Strep. bovis A5169)?
Its MIC is 0.1 µg/mL.

And the MIC [3]?
Its MIC is 0.05 µg/mL.

What about the MIC (Escherichia coli Juhl) of the same compound?
The MIC was 0.01 µg/mL.

And the MIC [4]?
Its MIC is 0.1 µg/mL.

And the MIC (Myco. smegmatis ATCC 114)?
The MIC was 0.02 µg/mL.

And the MIC [5]?
Its MIC is 0.05 µg/mL.

And the MIC [6]?
Its MIC is 0.05 µg/mL.

What about the MIC (E. coli KNK 437) of the same compound?
The MIC was 0.1 µg/mL.

And the MIC (Staph. epidermidis 3519)?
The MIC was 0.05 µg/mL.

What about the MIC (P. aeruginosa A5007) of the same compound?
The MIC was 0.39 µg/mL.

What about the MIC [7] of the same compound?
The MIC was 0.78 µg/mL.

And the MIC [8]?
Its MIC is 0.02 µg/mL.

And the MIC (Staph. aureus 642A)?
The MIC was 0.02 µg/mL.

What about the MIC (Staph. aureus CMX 553) of the same compound?
The MIC was 0.02 µg/mL.

And the MIC (Staph. aureus A5177)?
The MIC was 0.02 µg/mL.

And the MIC (Staph. aureus 5278)?
Its MIC is 0.05 µg/mL.

And the MIC [9]?
The MIC was 0.05 µg/mL.

And the MIC (Candida albicans CCH 442)?
The MIC was over 100 µg/mL.

And the MIC (P. aeruginosa 2862)?
Its MIC is 6.2 µg/mL.

And the MIC (Strep. pyogenes EES61)?
Its MIC is 0.02 µg/mL.

What about the MIC (P. aeruginosa K799/61) of the same compound?
Its MIC is 0.1 µg/mL.

And the MIC (Staph. aureus ATCC 6538P)?
Its MIC is 0.02 µg/mL.

What about the MIC [10] of the same compound?
Its MIC is 0.78 µg/mL.

What about the MIC (P. aeruginosa 5263) of the same compound?
Its MIC is 3.1 µg/mL.

And the MIC (P. aeruginosa BMH 10)?
Its MIC is 0.2 µg/mL.
